Where two headings read alike, the source gives them in different places.
Experiments:
[1] = tested on: human cryopreserved hepatocytes; assay: Metabolic stability (hepatocytes); format: in vitro ADME; settings: well-stirred model
Excerpt: Hepatic clearance is expressed as mL/min/kg.

[2] = tested on: human cryopreserved hepatocytes; assay: Metabolic stability (hepatocytes); format: in vitro ADME; settings: from human CLhep
[3] = biological target: P-gp (P-glycoprotein, MDR1) (Homo sapiens (Human), UniProt P08183); assay: MDCKII-MDR1 permeability, efflux ratio; format: in vitro ADME; settings: dog, MDCK-MDR1, pH 7.4, MDCKII-MDR1 cells, read-out: ER MDR1
P-gp (P-glycoprotein, MDR1), sequence (P08183 whole entry): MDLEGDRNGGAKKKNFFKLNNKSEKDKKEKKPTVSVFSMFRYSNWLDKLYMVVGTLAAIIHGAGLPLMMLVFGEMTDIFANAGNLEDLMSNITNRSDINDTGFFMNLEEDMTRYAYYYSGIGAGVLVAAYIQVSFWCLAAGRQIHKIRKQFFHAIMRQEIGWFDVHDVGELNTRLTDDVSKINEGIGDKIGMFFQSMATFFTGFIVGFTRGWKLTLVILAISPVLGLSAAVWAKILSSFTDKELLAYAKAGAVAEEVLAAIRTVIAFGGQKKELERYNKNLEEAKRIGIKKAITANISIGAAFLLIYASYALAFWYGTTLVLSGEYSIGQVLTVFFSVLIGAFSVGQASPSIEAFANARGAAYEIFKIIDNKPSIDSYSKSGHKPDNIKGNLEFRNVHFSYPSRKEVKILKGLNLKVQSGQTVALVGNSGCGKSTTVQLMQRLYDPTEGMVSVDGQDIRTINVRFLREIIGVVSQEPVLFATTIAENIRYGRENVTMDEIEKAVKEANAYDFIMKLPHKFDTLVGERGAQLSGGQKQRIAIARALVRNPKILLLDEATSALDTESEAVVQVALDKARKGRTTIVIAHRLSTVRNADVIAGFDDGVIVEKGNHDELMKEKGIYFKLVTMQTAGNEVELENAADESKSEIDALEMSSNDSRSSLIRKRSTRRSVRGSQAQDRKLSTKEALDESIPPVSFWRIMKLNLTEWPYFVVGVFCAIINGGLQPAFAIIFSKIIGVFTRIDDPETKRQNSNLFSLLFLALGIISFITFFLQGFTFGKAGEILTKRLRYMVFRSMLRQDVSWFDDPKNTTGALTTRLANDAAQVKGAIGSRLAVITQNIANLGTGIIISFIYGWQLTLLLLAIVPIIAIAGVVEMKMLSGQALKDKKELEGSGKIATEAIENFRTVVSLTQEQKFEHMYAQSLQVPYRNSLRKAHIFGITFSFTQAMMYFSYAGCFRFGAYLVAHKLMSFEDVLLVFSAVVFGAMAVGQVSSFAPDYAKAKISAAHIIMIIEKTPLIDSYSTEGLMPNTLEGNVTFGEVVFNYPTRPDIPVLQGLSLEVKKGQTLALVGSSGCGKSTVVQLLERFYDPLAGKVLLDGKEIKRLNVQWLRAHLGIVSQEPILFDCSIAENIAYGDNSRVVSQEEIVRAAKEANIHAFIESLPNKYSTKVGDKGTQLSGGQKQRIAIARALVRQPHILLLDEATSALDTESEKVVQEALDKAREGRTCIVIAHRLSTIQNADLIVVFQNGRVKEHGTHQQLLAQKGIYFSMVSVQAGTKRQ
Procedure: The blood brain barrier (BBB) separates circulating blood from the extracellular fluid of the central nervous system (CNS). The passive membrane permeability (Papp) and the P-gp (P-glycoprotein) substrate efflux potential were determined using the MDCKII-MDR1 cell line as an in vitro model of the effective permeability of a compound through the BBB. A bidirectional assay (Apical to Basolateral (A→B) and Basolateral to Apical (B→A)), in the absence and in the presence of GF120918 (a P-gp inhibitor) was conducted using pre-plated MDCKII-MDR1 cells (Corning HTS Transwell-96) obtained from SOLVO Biotechnology. The assay was run at 3 μM for 90 min (minutes) in triplicate using a HBSS+12.5 mM HEPES pH 7.4 transport buffer. Following incubation of samples from donor and receiver, wells were removed and measured by LC-MS/MS. Samples were extracted by protein precipitation with acetonitrile containing an appropriate internal standard (IS) having a known mass and molecular weight. The precipitate was centrifuged for 10 min at 3000 rpm (revolutions per minute). The supernatants were then collected, diluted if necessary, and injected on to the LC-MS/MS system. […] Papp (apparent permeability expressed in nm/sec [nanometer/second]) values were calculated according to the following equation: […]
Where dQ/dt is the permeability rate, C0 is the initial concentration in the donor solution (expressed as IS ratio), A and B are the surface areas of the filter (the surface area of the cell monolayer).
Monolayer efflux ratios (ER) were derived using the following equation: […]

[4] = in vivo
Procedure: (§1) The protein binding in plasma was determined using a Rapid Equilibrium Dialysis Device (Thermo Scientific RED Device) or 96-well dialyzer apparatus (HTDialysis LLC). […] If required, plasma samples were pre-incubated (2 hours at 37° C.) with diisopropyl fluorophosphate (DFP) at the final concentration of 100 μM to prevent compound degradation due to amide hydrolysis. Appropriate volumes of spiked samples along with blank phosphate buffer were added to either device and incubated at 37° C. for a total of 5 hours with agitation at 500 rpm. Following incubation, an equal aliquot of dialysed matrix (plasma or buffer) is added to an equal volume of the opposite blank matrix such that the volume of buffer to plasma are equal. Mixed matrix samples were extracted by protein precipitation using acetonitrile containing the appropriate IS. Samples were then centrifuged for 10 min at 2800 rpm. Supernatants were collected and diluted and then injected on to an HPLC-MS/MS or UPLC-MS/MS system. Samples were analyzed by monitoring the appropriate parent/daughter ion transitions for the test and control compounds. The peak area ratios were used to measure test item concentrations. The fraction unbound (Afu) was determined as the ratio of the peak area ratio in buffer divided by the peak area ratio in plasma.
(§2) The PK properties of test articles were determined in male Sprague-Dawley Crl:CD(SD) rats, male Beagle dogs and male cynomolgus monkeys. Studies were conducted to the highest standards of animal welfare in accordance with national legislation and under approval of the internal animal care and use committees.
(§3) Compounds were administered by IV bolus to animals following an overnight fast. […] The formulations were administered at dose volumes ranging from 0.5-2 mL/kg. The IV dose ranged from 0.5-1 mg/kg.
(§4) Following dose administration, 8-9 serial blood samples were collected over 24 hours. Samples were mixed with anticoagulant and placed on wet ice prior to processing. Plasma was harvested following centrifugation, extracted using protein precipitation with acetonitrile containing IS. The processed supernatant was analyzed using UPLC or LC-MS/MS using specific parent/daughter ion pairs for the test article and IS. Plasma concentrations were determined using a calibration curve prepared using known concentrations of analyte. Pharmacokinetic parameters utilizing measured concentrations were calculated using Phoenix WinNonlin. The unbound plasma clearance was calculated as the ratio of the total body clearance divided by the fraction unbound in plasma.

TNF/zVAD [5] = settings: dose of 30 mg/kg, Table 2 of WO 2014/125444; cited from earlier work
[6] = male, Beagle, in vivo
Procedure: as §1
The PK properties of test articles were determined in male Sprague-Dawley Crl:CD(SD) rats, male Beagle dogs and male cynomolgus monkeys. […]
Following dose administration, 8-9 serial blood samples were collected over 24 hours. […] The processed supernatant was analyzed using UPLC or LC-MS/MS using specific parent/daughter ion pairs for the test article and IS. Plasma concentrations were determined using a calibration curve prepared using known concentrations of analyte. Pharmacokinetic parameters utilizing measured concentrations were calculated using Phoenix WinNonlin. The unbound plasma clearance was calculated as the ratio of the total body clearance divided by the fraction unbound in plasma.

[7] = cynomolgus monkey, in vivo
Procedure: as §1, §2, §3, §4

[8] = tested on: FADD-deficient Jurkat cells; assay: Cellular necroptosis assay (human TNFα-induced); format: cell-based; settings: Homo sapiens, 48 h, read-out: Cell IC50
Procedure: Ten concentrations of the test compounds were assessed in duplicate in two different test occasions. […] The day of the experiment cells were diluted to a density of […] (5,000 cells/well) with culture medium and added (40 μL) into the 384-well plate containing 0.2 μL/well of test compounds and reference compounds (CRCs) (200×). Cell plates were then incubated at 37° C.-5% CO2. After 30 min, necroptotic cell death was induced with human TNFα (10 ng/mL) and cell viability was evaluated 48 h later by measuring cellular ATP levels using CellTiter-Glo® kit (Promega). Luminescence was read by using Victor V (Perkin Elmer) multilabel plate reader.

GST-hRIPK1 (8-327) [9] = biological target: T1, GST-hRIPK1 (8-327) (Homo sapiens (Human), UniProt Q13546); assay: Fluorescent Polarization Binding (FP Binding) assay
T1 sequence (Q13546 8-327): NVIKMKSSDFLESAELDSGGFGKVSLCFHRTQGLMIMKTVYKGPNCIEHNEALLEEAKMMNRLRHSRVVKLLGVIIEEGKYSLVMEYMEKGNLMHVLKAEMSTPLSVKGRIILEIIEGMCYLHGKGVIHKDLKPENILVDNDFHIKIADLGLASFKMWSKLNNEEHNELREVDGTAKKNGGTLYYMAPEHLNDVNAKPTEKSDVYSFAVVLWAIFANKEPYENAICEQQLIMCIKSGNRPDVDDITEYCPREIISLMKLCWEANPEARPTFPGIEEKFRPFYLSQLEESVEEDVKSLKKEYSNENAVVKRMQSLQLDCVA
Procedure: Fluorescent Polarization Binding (FP Binding) assay (Berger S. B. et al. […] Maki J. L. et al. […] Test Compounds were serially diluted in DMSO at 100 fold final concentrations in the assay (1% DMSO final). […] For negative control the enzyme addition was replaced by assay buffer only. After addition of 5 μL of fluorescent labeled ligand at twice the final concentrations in assay buffer, the plate was incubated at RT for 30 min.

TNF/zVAD [10] = assay: TNF-driven systemic inflammatory response syndrome model; format: in vivo; settings: 5 mg/kg orally 15 minutes before intravenous TNF/zVAD, mice
Excerpt: The in vivo efficacy of compounds can be determined in mice using a TNF-driven systemic inflammatory response syndrome model as described by Duprez et. al. (2011, Immunity 35(6), 908-918) and Berger et. al. (2015, Cell Death Disc. 1, 15009). In this model system TNF/zVAD (tumor necrosis factor/Z-Val-Ala-DL-Asp-fluoromethylketone, a caspase inhibitor) treatment results in temperature loss and the production of several inflammatory cytokines. The ability of a test compound to inhibit these inflammatory effects can be measured in this model by dosing mice with test compound 15 minutes before administration of TNF/zVAD and measuring the inflammatory response. The dose required to inhibit the inflammatory response is a measure of the compounds efficacy at that dose. Using this model, Compound 42 was orally pre-dosed at 5 mg/kg 15 minutes before intravenous administration of TNF/zVAD and temperature loss in the mice was measured by an implanted temperature chip. […] The decrease in dosing has a number of important potential advantages, including requiring less frequent administration to a patient, increased patient compliance, and improved safety profile such as lower toxicities while achieving similar efficacy.

GST-hRIPK1 (8-327) [11] = biological target: T1, GST-hRIPK1 (8-327); assay: ADP-Glo kinase assay; format: biochemical; settings: 50 μM ATP
Procedure: GST-hRIPK1 (8-327) enzyme was generated by Proteros GmbH by Baculovirus expression system.
Test compounds were diluted in DMSO and 0.1 μL of solution was dispensed to each well of a 384-well white solid microplate. The assay buffer was 50 mM HEPES pH 7.5, 50 mM NaCl, 30 mM MgCl2. The buffer was supplemented with 0.02% CHAPS, 0.01% of Pluronic F127, 0.1 mg/mL BSA and 1 mM DTT. MnCl2, 5 mM, was included in the assay buffer on the day of the experiment. The enzymatic reaction comprised 1.5 μg/mL GST-hRIPK1 (8-327) and 50 μM ATP for receptor interacting protein kinase 1 […]. 5 μL of enzyme and 5 μL of ATP were added to the plate at twice the final assay concentration and incubated at room temperature for 3 hours. Following this reaction, 10 μL of ADP-Glo reagent (Promega) was added to each well and incubated for 40 min at room temperature. This stops the kinase reaction and depletes any remaining ATP. […] The luminescence is then measured with the Envision (PerkinElmer) plate reader. Test compound inhibition was expressed as percent inhibition of internal assay controls. For concentration response curves, normalized data is fit and IC50 determined using XL-fit (IDBS) for Excel. […]
Test compound inhibition was expressed as percent inhibition of internal assay controls. For concentration response curves, normalized data is fit and IC50 determined using XL-fit (IDBS) for Excel. […]

[12] = male, Sprague-Dawley Crl:CD(SD)
[13] = 10 nM GST-hRIPK1 (8-327), 5 nM fluorescent labeled ligand, read-out: FP IC50
[14] = human TNFα 10 ng/mL, viability after 48 h

SMILES	Human hepatocyte CLhep Avg [1]	efflux ratio at 90 min, 3 μM [3]	Rat unbound CL [4, 12]	Cyno unbound CL ([7]; male)	IC50 (GST-hRIPK1 (8-327) [9]; [13])	also measured
CN1C(=O)[C@@H](NC(=O)c2nnc(Cc3ccccc3)[nH]2)COc2ccccc21 [A, reference compound]	6.8 mL/min/kg	6.4	77 mL/min/kg	117 mL/min/kg		clearance as % of liver blood flow [2]: approximately 32%; inhibition of temperature loss (TNF/zVAD [5]): 93%; Dog unbound CL [6]: 240 mL/min/kg
CN1C(=O)[C@@H](NC(=O)c2nnc(Cc3ccccc3)o2)COc2ccccc21 [B, reference compound]	14 mL/min/kg	1				
CN1C(=O)[C@@H](NC(=O)c2cc(Cc3ccccc3)on2)COc2ccccc21 [C, reference compound]	19 mL/min/kg	0.9				
CN1C(=O)[C@@H](NC(=O)c2nnc(Cc3ccccc3)[nH]2)COc2cccnc21 [Example 42, (S)-5-benzyl-N-(5-methyl-4-oxo-2,3,4,5-tetrahydropyrido[3,2-b][1,4]oxazepin-3-yl)-4H-1,2,4-triazole-3-carboxamide]	0.8 mL/min/kg	19	22 mL/min/kg	42 mL/min/kg		IC50 [8]: 0.1 to 1000 nM; clearance as % of liver blood flow [2]: less than 4%; IC50 (GST-hRIPK1 (8-327) [9]): 0.1 to 1000 nM; Dog unbound CL [6]: 64 mL/min/kg; inhibition of temperature loss (TNF/zVAD [10]): 96%
O=C(N[C@H]1COC[C@H]2CCCN2C1=O)c1nnc(Cc2ccccc2)[nH]1 [Example 65, N-[(4S,9aR)-5-oxo-octahydropyrrolo[2,1-c][1,4]oxazepin-4-yl]-5-benzyl-4H-1,2,4-triazole-3-carboxamide]						IC50 (GST-hRIPK1 (8-327) [11]): > 10 µM
CN1C(=O)[C@@H](NC(=O)c2nnc(C3(c4ccccc4)CC3)o2)COc2cccnc21 [Example 66, (S)—N-(5-methyl-4-oxo-2,3,4,5-tetrahydropyrido[3,2-b][1,4]oxazepin-3-yl)-5-(1-phenylcyclopropyl)-1,3,4-oxadiazole-2-carboxamide]	6.3 mL/min/kg	1.6	113 mL/min/kg	116 mL/min/kg	0.1 to 1000 nM	Dog unbound CL [6]: 36 mL/min/kg
CN1C(=O)[C@@H](NC(=O)c2nnc(Cc3ccccc3)[nH]2)[C@H]2C[C@H]2c2cccnc21 [Example 75A, 5-benzyl-N-((1aS,2S,8bR)-4-methyl-3-oxo-1,1a,2,3,4,8b-hexahydrocyclopropa[d]pyrido[2,3-b]azepin-2-yl)-4H-1,2,4-triazole-3-carboxamide]	9.1 mL/min/kg	24	91 mL/min/kg	93 mL/min/kg	0.1 to 1000 nM	
CN1C(=O)[C@@H](NC(=O)c2cc(C3(c4ccccc4)CC3)on2)COc2cccnc21 [Example 77, (S)—N-(5-methyl-4-oxo-2,3,4,5-tetrahydropyrido[3,2-b][1,4]oxazepin-3-yl)-5-(1-phenylcyclopropyl)isoxazole-3-carboxamide]	19 mL/min/kg	0.6	595 mL/min/kg		0.1 to 1000 nM	
O=C(N[C@@H]1C(=O)Nc2c(F)cc(F)cc2[C@@H]2C[C@H]12)c1nnc(Cc2ccccc2)[nH]1 [Example 83A, 5-benzyl-N-((1aS,2S,8bR)-5,7-difluoro-3-oxo-1,1a,2,3,4,8b-hexahydrobenzo[b]cyclopropa[d]azepin-2-yl)-4H-1,2,4-triazole-3-carboxamide]	1.0 mL/min/kg	29	116 mL/min/kg	82 mL/min/kg	0.1 to 1000 nM	
C[C@H]1Oc2cccnc2N(C)C(=O)[C@H]1NC(=O)c1nnc(Cc2ccccc2)[nH]1 [Example 94, 5-benzyl-N-((2R,3S)-2,5-dimethyl-4-oxo-2,3,4,5-tetrahydropyrido[3,2-b][1,4]oxazepin-3-yl)-4H-1,2,4-triazole-3-carboxamide]		14	44 mL/min/kg	40 mL/min/kg		IC50 [8, 14]: 6 nM
C[C@H]1Oc2cccnc2N(C)C(=O)[C@H]1NC(=O)c1nnc(Cc2ccccc2)o1 [Example 134, 5-Benzyl-N-((2R,3S)-2,5-dimethyl-4-oxo-2,3,4,5-tetrahydropyrido[3,2-b][1,4]oxazepin-3-yl)-1,3,4-oxadiazole-2-carboxamide]		1.1	100 mL/min/kg	140 mL/min/kg		IC50 [8, 14]: 3 nM
CN1C(=O)[C@@H](NC(=O)c2nnc(Cc3ccccc3)o2)COc2cccnc21 [Example 146, (S)-5-benzyl-N-(5-methyl-4-oxo-2,3,4,5-tetrahydropyrido[3,2-b][1,4]oxazepin-3-yl)-1,3,4-oxadiazole-2-carboxamide]		1	61 mL/min/kg	39 mL/min/kg		IC50 [8, 14]: 0.7 nM
CN1C(=O)[C@@H](NC(=O)c2nnc(Cc3ccccc3)o2)[C@H]2C[C@H]2c2nccnc21 [Example 177A]						Rat unbound CL [4]: 55 mL/min/kg; Cyno unbound CL [7]: 58 mL/min/kg

Source: patent US9815850B2, “Compounds, compositions and methods” (Denali Therapeutics Inc., priority 2016, dated 2017)
